# Source: PubChem BioAssay AID1918957 (Molecular Pharmacology Branch, DTP, NCI, 2023)
# pIC50: −log10 of the molar value.
# Tested on: NCI-H1876 complex spheroid viability
# Assay: Anticancer human tumor NCI-H1876 cell line growth inhibition [LSD1];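 also: spheroids exposed to compounds for one week before readout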;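 as to viability, T/C: 100% = DMSO vehicle-treated spheroids so lower means fewer viable cells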
# Conditions: for pIC50: curve of first compound; for viability, T/C: stronger effect = lower value
# Method in brief: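 Multicellular complex spheroids of tumor cells with human endothelial cells (HUVEC) and mesenchymal stem cells; the LSD1 inhibitor iadademstat was combined with standard-of-care or investigational agents. Top concentration at or near clinical Cmax, half-log dilutions; final DMSO ≤0.25%.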
# [1] = second compound 0.1 µM, first compound 0.000316 µM
# [2] = second compound 0.1 µM, first compound 0.001 µM
# [3] = second compound 0.1 µM, first compound 0.00316 µM
# [4] = second compound 0.1 µM, first compound 0.01 µM
# [5] = second compound 0.1 µM, first compound 0.0316 µM
# [6] = second compound 0.1 µM, first compound 0.1 µM
# [7] = second compound 0.316 µM, first compound 0.000316 µM
# [8] = second compound 0.316 µM, first compound 0.001 µM
# [9] = second compound 0.316 µM, first compound 0.00316 µM
# [10] = second compound 0.316 µM, first compound 0.01 µM
# [11] = second compound 0.316 µM, first compound 0.0316 µM
# [12] = second compound 0.316 µM, first compound 0.1 µM
# [13] = second compound 1 µM, first compound 0.000316 µM
# [14] = second compound 1 µM, first compound 0.001 µM
# [15] = second compound 1 µM, first compound 0.00316 µM
# [16] = second compound 1 µM, first compound 0.01 µM
# [17] = second compound 1 µM, first compound 0.0316 µM
# [18] = second compound 1 µM, first compound 0.1 µM
# [19] = second compound 3.16 µM, first compound 0.000316 µM
# [20] = second compound 3.16 µM, first compound 0.001 µM
# [21] = second compound 3.16 µM, first compound 0.00316 µM
# [22] = second compound 3.16 µM, first compound 0.01 µM
# [23] = second compound 3.16 µM, first compound 0.0316 µM
# [24] = second compound 3.16 µM, first compound 0.1 µM
# [25] = second compound 10 µM, first compound 0.000316 µM
# [26] = second compound 10 µM, first compound 0.001 µM
# [27] = second compound 10 µM, first compound 0.00316 µM
# [28] = second compound 10 µM, first compound 0.01 µM
# [29] = second compound 10 µM, first compound 0.0316 µM
# [30] = second compound 10 µM, first compound 0.1 µM
# [31] = second compound 0.1 µM, first compound 0.00949 µM
# [32] = second compound 0.1 µM, first compound 0.03 µM
# [33] = second compound 0.1 µM, first compound 0.0949 µM
# [34] = second compound 0.1 µM, first compound 0.3 µM
# [35] = second compound 0.1 µM, first compound 0.949 µM
# [36] = second compound 0.1 µM, first compound 3 µM
# [37] = second compound 0.316 µM, first compound 0.00949 µM
# [38] = second compound 0.316 µM, first compound 0.03 µM
# [39] = second compound 0.316 µM, first compound 0.0949 µM
# [40] = second compound 0.316 µM, first compound 0.3 µM
# [41] = second compound 0.316 µM, first compound 0.949 µM
# [42] = second compound 0.316 µM, first compound 3 µM
# [43] = second compound 1 µM, first compound 0.00949 µM
# [44] = second compound 1 µM, first compound 0.03 µM
# [45] = second compound 1 µM, first compound 0.0949 µM
# [46] = second compound 1 µM, first compound 0.3 µM
# [47] = second compound 1 µM, first compound 0.949 µM
# [48] = second compound 1 µM, first compound 3 µM
# [49] = second compound 3.16 µM, first compound 0.00949 µM
# [50] = second compound 3.16 µM, first compound 0.03 µM
# [51] = second compound 3.16 µM, first compound 0.0949 µM
# [52] = second compound 3.16 µM, first compound 0.3 µM
# [53] = second compound 3.16 µM, first compound 0.949 µM
# [54] = second compound 3.16 µM, first compound 3 µM
# [55] = second compound 10 µM, first compound 0.00949 µM
# [56] = second compound 10 µM, first compound 0.03 µM
# [57] = second compound 10 µM, first compound 0.0949 µM
# [58] = second compound 10 µM, first compound 0.3 µM
# [59] = second compound 10 µM, first compound 0.949 µM
# [60] = second compound 10 µM, first compound 3 µM
structure (smiles),measurement,setting,value
CC(C)CC(NC(=O)C(Cc1ccccc1)NC(=O)c1cnccn1)B(O)O (stereo not given) + NC1CCC(NC2CC2c2ccccc2)CC1,pIC50,second compound 0.1 µM,9.22
same,pIC50,second compound 0.316 µM,9.25
same,pIC50,second compound 1 µM,9.26
same,pIC50,second compound 3.16 µM,9.35
same,pIC50,second compound 10 µM,9.31
same,"viability, T/C",[1],92.6%
same,"viability, T/C",[2],16.3%
same,"viability, T/C",[3],31.7%
same,"viability, T/C",[4],14.5%
same,"viability, T/C",[5],0.17%
same,"viability, T/C",[6],3.63%
same,"viability, T/C",[7],89.3%
same,"viability, T/C",[8],9.55%
same,"viability, T/C",[9],13.6%
same,"viability, T/C",[10],17.3%
same,"viability, T/C",[11],10.1%
same,"viability, T/C",[12],3.61%
same,"viability, T/C",[13],82%
same,"viability, T/C",[14],16.4%
same,"viability, T/C",[15],13.8%
same,"viability, T/C",[16],13.1%
same,"viability, T/C",[17],7.48%
same,"viability, T/C",[18],11.4%
same,"viability, T/C",[19],70%
same,"viability, T/C",[20],0.39%
same,"viability, T/C",[21],9.3%
same,"viability, T/C",[22],3.65%
same,"viability, T/C",[23],0.15%
same,"viability, T/C",[24],10.3%
same,"viability, T/C",[25],74%
same,"viability, T/C",[26],9.39%
same,"viability, T/C",[27],7.81%
same,"viability, T/C",[28],7.31%
same,"viability, T/C",[29],3.77%
same,"viability, T/C",[30],12.5%
CC(C)CC(NC(=O)CNC(=O)c1cc(Cl)ccc1Cl)B1OC(=O)CC(CC(=O)O)(C(=O)O)O1 (stereo not given) + NC1CCC(NC2CC2c2ccccc2)CC1,pIC50,second compound 0.1 µM,8.04
same,pIC50,second compound 0.316 µM,8.06
same,pIC50,second compound 1 µM,8.10
same,pIC50,second compound 3.16 µM,8.10
same,pIC50,second compound 10 µM,8.12
same,"viability, T/C",[1],94.5%
same,"viability, T/C",[2],109%
same,"viability, T/C",[3],104%
same,"viability, T/C",[4],45.1%
same,"viability, T/C",[5],8.77%
same,"viability, T/C",[6],0.58%
same,"viability, T/C",[7],98.2%
same,"viability, T/C",[8],108%
same,"viability, T/C",[9],104%
same,"viability, T/C",[10],43%
same,"viability, T/C",[11],7.91%
same,"viability, T/C",[12],17.4%
same,"viability, T/C",[13],99.3%
same,"viability, T/C",[14],97.2%
same,"viability, T/C",[15],96.2%
same,"viability, T/C",[16],38.2%
same,"viability, T/C",[17],9.23%
same,"viability, T/C",[18],7.49%
same,"viability, T/C",[19],105%
same,"viability, T/C",[20],112%
same,"viability, T/C",[21],99%
same,"viability, T/C",[22],36.5%
same,"viability, T/C",[23],18.1%
same,"viability, T/C",[24],0.81%
same,"viability, T/C",[25],99%
same,"viability, T/C",[26],104%
same,"viability, T/C",[27],93.9%
same,"viability, T/C",[28],35.5%
same,"viability, T/C",[29],15.6%
same,"viability, T/C",[30],13.8%
Nc1ccccc1NC(=O)c1ccc(CNC(=O)OCc2cccnc2)cc1 + NC1CCC(NC2CC2c2ccccc2)CC1,pIC50,second compound 0.1 µM,6.73
same,pIC50,second compound 0.316 µM,6.75
same,pIC50,second compound 1 µM,6.73
same,pIC50,second compound 3.16 µM,6.77
same,pIC50,second compound 10 µM,6.75
same,"viability, T/C",[31],98.5%
same,"viability, T/C",[32],109%
same,"viability, T/C",[33],90.6%
same,"viability, T/C",[34],21.2%
same,"viability, T/C",[35],4.45%
same,"viability, T/C",[36],1.28%
same,"viability, T/C",[37],113%
same,"viability, T/C",[38],108%
same,"viability, T/C",[39],78.3%
same,"viability, T/C",[40],26.3%
same,"viability, T/C",[41],3.15%
same,"viability, T/C",[42],1.03%
same,"viability, T/C",[43],114%
same,"viability, T/C",[44],115%
same,"viability, T/C",[45],86.2%
same,"viability, T/C",[46],23.3%
same,"viability, T/C",[47],11.6%
same,"viability, T/C",[48],1.66%
same,"viability, T/C",[49],111%
same,"viability, T/C",[50],104%
same,"viability, T/C",[51],80%
same,"viability, T/C",[52],21.2%
same,"viability, T/C",[53],2.36%
same,"viability, T/C",[54],0.71%
same,"viability, T/C",[55],102%
same,"viability, T/C",[56],102%
same,"viability, T/C",[57],86.5%
same,"viability, T/C",[58],20.2%
same,"viability, T/C",[59],10.6%
same,"viability, T/C",[60],1.74%
O=C(C=Cc1cccc(S(=O)(=O)Nc2ccccc2)c1)NO + NC1CCC(NC2CC2c2ccccc2)CC1,pIC50,second compound 0.1 µM,6.71
same,pIC50,second compound 0.316 µM,6.71
same,pIC50,second compound 1 µM,6.75
same,pIC50,second compound 3.16 µM,6.71
same,pIC50,second compound 10 µM,6.80
same,"viability, T/C",[31],109%
same,"viability, T/C",[32],103%
same,"viability, T/C",[33],89.3%
same,"viability, T/C",[34],27%
same,"viability, T/C",[35],12.8%
same,"viability, T/C",[36],10.9%
same,"viability, T/C",[37],103%
same,"viability, T/C",[38],101%
same,"viability, T/C",[39],87%
same,"viability, T/C",[40],27.1%
same,"viability, T/C",[41],13.9%
same,"viability, T/C",[42],19.6%
same,"viability, T/C",[43],103%
same,"viability, T/C",[44],105%
same,"viability, T/C",[45],77.3%
same,"viability, T/C",[46],27.3%
same,"viability, T/C",[47],6.13%
same,"viability, T/C",[48],0.61%
same,"viability, T/C",[49],101%
same,"viability, T/C",[50],106%
same,"viability, T/C",[51],82.2%
same,"viability, T/C",[52],29.8%
same,"viability, T/C",[53],4.78%
same,"viability, T/C",[54],0.3%
same,"viability, T/C",[55],105%
same,"viability, T/C",[56],99.3%
same,"viability, T/C",[57],69.8%
same,"viability, T/C",[58],26.6%
same,"viability, T/C",[59],3.06%
same,"viability, T/C",[60],19.4%
